Measurements: US7109181B2, “Joint lubrication with P2Y purinergic receptor agonists” (Inspire Pharmaceuticals, Inc., priority 2001, dated 2006)

system: synovial fibroblasts; assay: Measurement of cytosolic calcium in cultured synovial fibroblasts (Fluo-3 AM, FLIPR); type: cell-based; conditions: synovial fibroblasts stimulated with increasing concentrations of P2Y receptor agonists; FIG. 1
Description: The pharmaceutical utility of compounds of this invention is indicated by the cytosolic calcium assay for P2Y2 and other P2Y receptor activity. This widely used assay, as described in Pendergast, et al. (2001) (Bioorg. Med. Chem. Lett. 11, 157-160), relies on the measurement of increased cytosolic calcium levels to determine the biological activity of compounds that activate receptors linked via G-proteins to phospholipase C. The efficacy of these compounds is reflected in their ability to alter and/or enhance the secretory activity of the joints, including but not limited to, the knee, hip, and shoulder, to effectuate the agent's target response. The target response is the improvement of joint lubrication and movement.
A conventional technique was used to detect increases in cytosolic calcium induced by P2Y receptor agonists, a technique familiar to those skilled in the art. Cells were seeded in 96-well plates and used for cytosolic calcium assays. On the day of the assay, the growth medium was aspirated and replaced with a solution of Fluo-3 AM (2.5 μM final concentration) in an assay buffer consisting of (mM): KCl (10), NaCl (118), CaCl2 (2.5), MgCl2 (1), HEPES (20), glucose (10), pH 7.4. Probenecid (Sigma Chemical Co.) was added to the dye load and dye wash medium at a working concentration of 2.5 mM to increase dye retention in the cells. After a 60 minute incubation with Fluo-3 AM at 25° C., cells were washed free of dye (Columbus Plate Washer, TECAN U.S., Inc., Research Triangle Park, N.C.) and were stimulated with increasing concentrations of P2Y receptor agonists. Intracellular calcium levels were simultaneously monitored in each well by measuring the changes in fluorescence intensity using the FLIPR (Molecular Devices Corp., Sunnyvale, Calif.).
Synovial fibroblasts were subjected to the cytosolic calcium assay described above. […] The induction of increases in cytosolic calcium by ATP and UTP in synovial fibroblasts indicated the pharmaceutical utility of P2Y2 receptor agonists in the joint.

With CSc1nc(N)c2ncn([C@@H]3O[C@H](COP(=O)(O)OP(=O)(O)O)[C@@H](O)[C@H]3O)c2n1 [2-methylthioADP, reference compound] as the molecule, how does the “effect on cytosolic calcium levels” value read?
Its value is “did not alter cytosolic calcium concentration”.

Which “effect on cytosolic calcium levels” value does the source give for Nc1ncnc2c1ncn2[C@@H]1O[C@H](COP(=O)(O)OP(=O)(O)OP(=O)(O)O)[C@@H](O)[C@H]1O [ATP, adenosine-5′-triphosphate] here?
Its value is “stimulate increases in cytosolic calcium”.

Which “effect on cytosolic calcium levels” value does the source give for O=c1ccn([C@@H]2O[C@H](COP(=O)(O)OP(=O)(O)OP(=O)(O)O)[C@@H](O)[C@H]2O)c(=O)[nH]1 [UTP, uridine-5′-triphosphate] here?
Its value is “stimulate increases in cytosolic calcium”.
